From patent publication US7795288B2, “Thiazole and pyrazole derivatives as Flt-3 kinase inhibitors” (Novartis AG, priority 2003, dated 2010) come the findings set out here.

Structures are written as SMILES.

The target in the assay is T1, cytoplasmic kinase domain of human Flt-3 (GST-Flt-3) (Homo sapiens, UniProt P36888).
T1 construct: expressing the amino acid region amino acids 563-993 of the cytoplasmic kinase domain of human Flt-3; made in house; host or cells: Sf9 insect cells (baculovirus, pFbacG01 donor vector)
T1 sequence (P36888 563-993): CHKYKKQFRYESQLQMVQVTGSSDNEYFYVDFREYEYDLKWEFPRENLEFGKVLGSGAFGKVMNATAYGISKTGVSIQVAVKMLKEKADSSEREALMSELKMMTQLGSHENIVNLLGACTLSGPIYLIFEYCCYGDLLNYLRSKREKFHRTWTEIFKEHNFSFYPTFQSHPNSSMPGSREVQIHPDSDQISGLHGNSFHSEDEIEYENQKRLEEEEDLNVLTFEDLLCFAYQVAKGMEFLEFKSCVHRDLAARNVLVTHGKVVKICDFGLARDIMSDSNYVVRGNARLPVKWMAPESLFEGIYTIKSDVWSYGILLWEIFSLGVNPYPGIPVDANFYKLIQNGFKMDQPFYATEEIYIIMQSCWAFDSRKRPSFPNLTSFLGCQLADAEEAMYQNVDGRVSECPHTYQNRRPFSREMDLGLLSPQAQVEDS
Nature of the assay: Inhibition of the protein tyrosine kinase activity of Flt-3 (GST-Flt-3, 33P incorporation into poly(Glu, Tyr)). It counts as biochemical. The settings on record: purified GST-Flt-3, 8.0 μM ATP, poly(Glu, Tyr) 4:1, 20 min at ambient temperature. From the text: The baculovirus donor vector pFbacG01 (GIBCO) is used to generate a recombinant baculovirus expressing the amino acid region amino acids 563-993 of the cytoplasmic kinase domain of human Flt-3. The coding sequence for the cytoplasmic domain of Flt-3 is amplified by PCR from human c-DNA libraries (Clontech). The amplified DNA fragments and the pFbacG01 vector are made compatible for ligation by digestion with BamH1 and HindIII. Ligation of these DNA fragments results in the baculovirus donor plasmid Flt-3 (1.1). The production of the viruses, the expression of proteins in Sf9 cells and the purification of the GST-fused proteins are performed as follows: Production of virus: Transfer vector (pFbacG01-Flt-3) containing the Flt-3 kinase domain is transfected into the DH10Bac cell line (GIBCO) and the transfected cells are plated on selective agar plates. Colonies without insertion of the fusion sequence into the viral genome (carried by the bacteria) are blue. Single white colonies are picked and viral DNA (bacmid) is isolated from the bacteria by standard plasmid purification procedures. Sf9 or Sf21 cells (American Type Culture Collection) are then transfected in flasks with the viral DNA using Cellfectin reagent. Protein expression in Sf9 cells: Virus containing media is collected from the transfected cell culture and used for infection to increase its titre. Virus containing media obtained after two rounds of infection is used for large-scale protein expression. For large-scale protein expression 100 cm^2 round tissue culture plates are seeded with 5×10^7 cells/plate and infected with 1 mL of virus-containing media (approx. 5 MOIs). After 3 days the cells are scraped off the plate and centrifuged at 500 rpm for 5 min. Cell pellets from 10-20, 100 cm^2 plates are resuspended in 50 mL of ice-cold lysis buffer (25 mM Tris-HCl, pH 7.5, 2 mM EDTA, 1% NP-40, 1 mM DTT, 1 mM PMSF). The cells are stirred on ice for 15 min and then centrifuged at 5000 rpms for 20 min. Purification of GST-tagged proteins: The centrifuged cell lysate is loaded onto a 2 mL glutathione-sepharose column (Pharmacia) and washed three times with 10 mL of 25 mM Tris-HCl, pH 7.5, 2 mM EDTA, 1 mM DTT, 200 mM NaCl. The GST-tagged protein is then eluted by 10 applications (1 mL each) of 25 mM Tris-HCl, pH 7.5, 10 mM reduced-glutathione, 100 mM NaCl, 1 mM DTT, 10% Glycerol and stored at −70° C. Measurement of enzyme activity: Tyrosine protein kinase assays with purified GST-Flt-3 are carried out in a final volume of 30 μL containing 200-1800 ng of enzyme protein (depending on the specific activity), 20 mM Tris-HCl, pH 7.6, 3 mM MnCl2, 3 mM MgCl2, 1 mM DTT, 10 μM Na3VO4, 3 μg/mL poly(Glu, Tyr) 4:1, 1% DMSO, 8.0 μM ATP and 0.1 μCi [γ^33 P] ATP. The activity is assayed in the presence or absence of inhibitors, by measuring the incorporation of ^33P from [γ^33P] ATP into the poly(Glu, Tyr) substrate. The assay (30 μL) is carried out in 96-well plates at ambient temperature for 20 min and terminated by the addition of 20 μL of 125 mM EDTA. Subsequently, 40 μL of the reaction mixture is transferred onto Immobilon-PVDF membrane (Millipore, Bedford, Mass., USA) previously soaked for 5 min with methanol, rinsed with water, then soaked for 5 min with 0.5% H3PO4 and mounted on vacuum manifold with disconnected vacuum source. After spotting all samples, vacuum is connected and each well rinsed with 200 μL 0.5% H3PO4. Membranes are removed and washed 4× on a shaker with 1.0% H3PO4, once with ethanol. Membranes are counted after drying at ambient temperature, mounting in Packard TopCount 96-well frame, and addition of 10 μL/well of Microscint™ (Packard). IC50 values are calculated by linear regression analysis of the percentage inhibition of each compound in duplicate, at four concentrations (usually 0.01, 0.1, 1 and 10 μM). One unit of protein kinase activity is defined as 1 nmole of ^33P transferred from [γ^33P] ATP to the substrate protein per minute per mg of protein at 37° C. […]
Broadly, the IC50 is the concentration at which inhibition is half-maximal. The low end stands for greater potency, the high end for weaker potency. The compound `c1cc(-c2cnc(Nc3ccc(OCCN4CCCCC4)cc3)s2)cs1` [Example 16, [4-(2-Piperidin-1-yl-ethoxy)-phenyl]-(5-thiophen-3-yl-thiazol-2-yl)-amine] had an IC50 of 22 nM.

For the compound `Oc1ccc(-c2cnc(Nc3ccc(OCCN4CCCC4)cc3)s2)cc1` [Example 7, 4-{2-[4-(2-Pyrrolidin-1-yl-ethoxy)-phenylamino]-thiazol-5-yl}-phenol], half-maximal inhibition (IC50) was put at 35 nM.

Regarding `c1ccc(-c2cnc(Nc3ccc(OCCN4CCCC4)cc3)s2)cc1` [Example 1, (5-Phenyl-thiazol-2-yl)-[4-(2-pyrrolidin-1-yl-ethoxy)-phenyl]-amine], the midpoint of inhibition, the IC50, lay at 41 nM.

As for `Oc1ccc(Nc2ncc(-c3ccsc3)s2)cc1` [Example 12, 4-(5-Thiophen-3-yl-thiazol-2-yl-amino)-phenol], the IC50 was found to be 34 nM.

For `COc1ccc(-c2cnc(Nc3ccc(N4CCN(C)CC4)cc3)s2)cc1` [Example 5, [5-(4-Methoxy-phenyl)-thiazol-2-yl]-[4-(4-methyl-piperazin-1-yl)-phenyl]-amine], it took 24 nM to reach half-maximal inhibition (IC50).

As for `CCN(CC)CCOc1ccc(Nc2cc(-c3ccsc3)[nH]n2)cc1` [Example 37, [4-(2-Diethylamino-ethoxy)-phenyl]-(5-thiophen-3-yl-1H-pyrazol-3-yl)-amine], the IC50 came to 31 nM.

In turn, `c1cc(-c2cc(Nc3ccc(OCCN4CCCC4)cc3)n[nH]2)cs1` [Example 34, [4-(2-Pyrrolidin-1-yl-ethoxy)-phenyl]-(5-thiophen-3-yl-1H-pyrazol-3-yl)-amine] registered an IC50 of 82 nM. This IC50 lies about 2.6-fold higher than the previous one.
